Columns and labels:
[1] = system: electrically stimulated left atrium of rats; assay: positive inotropic action on electrically stimulated left atrium in vitro; design: species or system rat; settings: for [EC40 pot.] theophylline / [EC40 pot.] substance: Column E, left atrium; for EC40: Rattus norvegicus, Column B, negative logarithm of EC40pot in mol/l, 40% increase in contraction force, read-out: -lg[EC40 pot.] left atrium (converted)
Description: The positive inotropic action was tested in vitro on the electrically stimulated left atrium of rats (l.a.).
The positive inotropic action of the compounds was tested in vitro on the electrically stimulated left atrium of rats.
Isometric contractions (HSE force sensor K-30; Watanabe recorder, Linear Corder Mark 5) of isolated, left atria from rats (.male., 250-300 g) in an organ bath (10 ml, Tyrode nutrient solution, 31° C., gassing with carbogen, initial tension of the organs 0.25 g) under electrical stimulation (HSE stimulator, 7 V, 3 ms, 2 Hz) were recorded. […] The particular increase in the contraction force is expressed in % of the starting value before administration of the substance. The concentration of the test substance which potentiates the contraction force of the atrium by 40% compared with the starting value [EC40pot. mol/l], expressed by the negative logarithm of the [EC40pot mol/l]: -lg[EC40pot ] serves as a measure of the cardiotonic activity.

[2] = system: histamine-induced bronchospasm; assay: inhibition of histamine-induced bronchospasm in anesthetized guinea pigs; type: in vivo, guinea pig; settings: for inhibition of histamine-induced bronchospasm, TVi / inhibition of histamine-induced bronchospasm, Vmaxe / inhibition of histamine-induced bronchospasm, Vmaxi: 20 μmol/kg i.v.; for inhibition of histamine-induced bronchospasm compared with theophylline: result in words
Description: A method for simultaneously recording pharmacodynamic and toxic effects on internal sensitive receptors, on the respiration and the cardiovascular system of guinea pigs was used [U. Kilian, E. Muller, E. Ch. […] To characterize the bronchospasm induced by histamine (0.09-0.18 μmol /kg i.v.), the maximum flow rate of the respiratory air during inspiration (Vmaxi) and expiration (Vmaxe) and the breath volume (BVi) were measured. A histamine spasm before administration of the substance was compared with several histamine spasms after administration of the substance. The test substances were administered intravenously (i.v.) and/or intrajejunally (i.j.). 5 to 10 animals were used per measurement, and the arithmetic mean was calculated from the results.

[3] = system: chain of tracheal rings of guinea pigs; assay: relaxing action on chain of tracheal rings in vitro (bronchospasmolytic action); design: species or system guinea pig; settings: for EC50: Cavia porcellus, Column A, negative logarithm of EC50 in mol/l, 50% of maximum relaxation by (-)isoprenaline, read-out: -lg[EC50] trachea (converted); for [EC40 pot.] left atrium / [EC50] trachea: Column C, measure of organ-selective activity; for [EC50] theophylline / [EC50] substance: Column D, trachea
Description: The relaxing action of the 6-aryl-3[2H]pyridazinones I has been tested in vitro on a chain of tracheal rings (Tr.) of guinea pigs. […] The quotient of [EC40pot. ]left atrium and [ED50 ]trachea serves as a measure of the organ-selective activity.
The bronchospasmolytic action of the compounds on the chain of tracheal rings of the guinea pig was tested in vitro:
Four parallel chains of tracheal rings, each consisting of 6 individual rings, of guinea pigs(.male. and .female., 430-600 g) in an organ bath [5 ml, Krebs-Henseleit solution with added phentolamine (10^-5 mol/l), 37° C., initial tension of the organs 2 g, gassing with carbogen] develop a stable, spontaneous tonic contraction after about 20 to 30 minutes. […] Over a period of 20 to 30 minutes, a complete dose/action curve of the test substance is thus obtained. The particular relaxation is expressed as a percentage fraction of the maximum relaxation which can be achieved by administration of (-)isoprenaline (10^-6 mol/1). The concentration of the test substance which causes 50% of the maximum relaxation which can be achieved, expressed by the negative logarithm of the EC50 mol/l: -lg[EC50 ]is a measure of the bronchodilator activity.

[4] = system: acetylcholine-induced bronchospasm; assay: protective effect against acetylcholine-induced bronchospasm in conscious guinea pigs; type: in vivo, guinea pig; settings: for Doubling of the latency period / Tripling of the latency period: 100 μmol/kg p.o., 30 min; for Tripling of the latency period: figure in parentheses; for protective effect compared with theophylline: result in words
Description: The figure in parentheses indicates the number out of 10 animals in which the latency period more than tripled.
The latency period is to be understood to be the time from the start of acetylcholine-atomization until clear signs of asthma appeared.
The time from the start of atomization to the onset of clear respiratory exertion (in certain circumstances, hypoxic convulsion in the lateral position) is measured, and is denoted the latency period.
The test substance is administered orally by gavage (standard dose 100 μmol/kg, volume 1 ml of 4% strength methocel suspension in 0.9% strength sodium chloride solution/kg). […] Prolongation of the latency period to at least twice its length is regarded as a protective effect.

| Structure (SMILES) | [EC40 pot.] theophylline / [EC40 pot.] substance [1] | EC40 [1] | inhibition of histamine-induced bronchospasm, TVi ([2]; 2 min) | inhibition of histamine-induced bronchospasm, Vmaxe ([2]; 2 min) | inhibition of histamine-induced bronchospasm, Vmaxi ([2]; 2 min) | inhibition of histamine-induced bronchospasm, TVi ([2]; 10 min) | inhibition of histamine-induced bronchospasm, Vmaxe ([2]; 10 min) | inhibition of histamine-induced bronchospasm, Vmaxi ([2]; 10 min) | inhibition of histamine-induced bronchospasm, TVi ([2]; 20 min) | inhibition of histamine-induced bronchospasm, Vmaxe ([2]; 20 min) | inhibition of histamine-induced bronchospasm, Vmaxi ([2]; 20 min) | inhibition of histamine-induced bronchospasm, TVi ([2]; 30 min) | inhibition of histamine-induced bronchospasm, Vmaxe ([2]; 30 min) | inhibition of histamine-induced bronchospasm, Vmaxi ([2]; 30 min) | inhibition of histamine-induced bronchospasm, TVi ([2]; 60 min) | inhibition of histamine-induced bronchospasm, Vmaxe ([2]; 60 min) | inhibition of histamine-induced bronchospasm, Vmaxi ([2]; 60 min) | inhibition of histamine-induced bronchospasm compared with theophylline [2] | EC50 [3] | [EC40 pot.] left atrium / [EC50] trachea [3] | further results |
| --- | --- | --- | --- | --- | --- | --- | --- | --- | --- | --- | --- | --- | --- | --- | --- | --- | --- | --- | --- | --- | --- |
| COc1ccc(-c2ccc(=O)[nH]n2)cc1OCC(C)C [Serial No. 15, 6-(4-methoxy-3-isobutoxyphenyl)-3[2H]pyridazinone] | 1122 | 372 nM | 99% | 108% | 172% | 107% | 123% | 119% | 104% | 103% | 110% | 63% | 84% | 82% | 33% | 46% | 60% | significantly more effective than theophylline | 724 nM | 0.5 | [EC50] theophylline / [EC50] substance [3]: 186; Doubling of the latency period [4]: 10 N of 10 animals; Tripling of the latency period [4]: 10 N of 10 animals; protective effect compared with theophylline [4]: greater protective effect |
| COc1cc(-c2ccc(=O)[nH]n2)ccc1OCC(C)C [Serial No. 16, 6-(3-methoxy-4-isobutoxyphenyl)-3[2H]pyridazinone] | 251 | 1660 nM | 153% | 145% | 154% | 66% | 63% | 73% | 46% | 60% | 48% | 28% | 33% | 34% | 13% | 16% | 15% | significantly more effective than theophylline | 288 nM | 5.8 | [EC50] theophylline / [EC50] substance [3]: 468; Doubling of the latency period [4]: 8 N of 10 animals; Tripling of the latency period [4]: 5 N of 10 animals; protective effect compared with theophylline [4]: greater protective effect |
